According to publication PMC3857224, “Inhibition of DNA Glycosylases via Small Molecule Purine Analogs” (PLoS ONE, 2013):

Tests used:
[1] = biological target: T1, NEIL1 (Homo sapiens, UniProt Q96FI4); assay: qHTS fluorogenic glycosylase/AP lyase assay, 1536-well, Sp/Gh substrate; format: biochemical; details: 5 concentrations
T1 construct: made in house
Method: The fluorogenic assay was miniaturized to 4 µL in 1536-well black solid plates by optimization of the enzyme and Sp/Gh substrate concentrations. Briefly, 3 µL of 25 nM NEIL1 were dispensed into each well of a 1536-well plate (except buffer in columns 3 and 4 as a negative control). Compounds (DMSO solutions) and control (DMSO only) (23 nL) were transferred to the plate via Kalypsys pintool. The plate was incubated for 15 min at room temperature, and then 1 µL of the Sp/Gh-containing DNA substrate (75 nM final concentration) was added to start the reaction. The plate was immediately transferred into the ViewLux reader for the kinetic fluorescence read. Initial rate data were normalized against uninhibited and no-enzyme controls and the resulting percent activities as a function of compound concentration were fitted using the Hill equation.
Having established the general principle for a glycosylase screening assay, further assay development was undertaken to enable HTS in which the reaction volumes were reduced by 5-fold to a total of 4 µL. Initially, the library of pharmacologically active compounds (LOPAC^1280) was screened for inhibitors of NEIL1 as a determination of the feasibility of this high-throughput method. […] All compounds were screened at 5 different concentrations that allowed for the initial estimation of inhibitory potency (IC50) values, as well as an evaluation of the shape of the response curves. In addition to the anticipated inhibitors (known DNA intercalators, such as ellipticine (IC50 = 2 µM)) and other small molecules that have been previously established to be promiscuous inhibitors (such as aurintricarboxylic acid (IC50<1 µM)), one interesting hit from this screen was CGP-74514A (NCGC ID is NCGC00015229) (Figure 5A). CGP-74514A is a known small molecule inhibitor of Cdk1 in which the structure of this molecule is based on a purine ring backbone.

[2] = biological target: T1, NEIL1; assay: gel-based incision assay of oligodeoxynucleotides containing site-specific base lesions; format: biochemical; details: polyacrylamide gel, reaction quenched at 20 min
Method: The 384-well fluorogenic assay was carried out in a 20 µL reaction mixture in 20 mM Tris-HCl pH 8.0, 100 mM KCl, and 0.1% BSA, with 5 nM active enzyme and 50 nM substrate. Possible inhibitors were incubated with the enzyme for at least 5 min at room temperature in a black, low-volume 384-well plate before addition of an equal volume of substrate to start the reaction. The plates were spun for 30 s at 1000 rcf to remove bubbles. The reactions were incubated at 37°C and fluorescence data collected on an Infinite M200 (Tecan, Mannedorf, Switzerland) equipped with standard optics (excitation filter 525 nm, and emission filter 598 nm). For the gel-based assay, reactions were initiated as described for the fluorogenic assay, but quenched with 20 µL 95% formamide at 20 min. The products were separated by electrophoresis through a 15% polyacrylamide gel containing 8 M urea and visualized by a Typhoon scanner (GE Life Sciences, Piscataway, NJ). The fraction of cleaved product was measured using ImageQuant software and analyzed using GraphPad Prism 6. […]

[3] = tested on: Neil1-KO MEFs; assay: cell survival assay (CellTiter Glo), Neil1-KO MEFs; format: cell-based, mouse; details: Neil1 knockout MEFs, 72 h exposure
Method: Wild-type or Neil1-KO MEFs were plated in a 96-well opaque walled dish (2000 cells/well) and incubated for 18 h to allow for attachment. Inhibitor (80 µL) diluted in DMEM was added to the cells at various concentrations ranging from 0–20 µM, and incubated for an additional 72 h. Cell viability was measured using the CellTiter Glo reagent (Promega, Madison, WI) and was prepared as per the manufacturer's instructions, with 50 µL of the reconstituted reagent added to each well. Cells were incubated for 10 min on an orbital shaker to induce cell lysis. Survival was measured by luminescence on a microplate reader (TECAN) and normalized to no-treatment control.
To experimentally address this question, mouse embryo fibroblasts from wild-type and Neil1 knockout mice were treated with increasing concentrations of P2, P6, P7, and P8. Cell survival was measured after a 72 h exposure. For all four compounds, the 37% survival was greater in the Neil1 knockout cells relative to the wild-type. The D37 ratios for WT: Neil1 were as follows: P2: 6∶10 µM; P6: 5∶8 µM; P7: 12∶15 µM; and P8: 7∶11 µM, respectively. […] In addition to modulating BER, there are potentially many other candidate enzymes that may be compromised by the introduction of these compounds, including but not limited to kinases, DNA and RNA polymerases, other DNA repair complexes or helicases. However, given that the concentrations of these compounds are several orders of magnitude higher than what would be considered as a pharmacologically-relevant dose, detailed mechanistic analyses of the current set of compounds is highly premature. Such studies and the development of appropriate cell culture and animal models will need to be generated concomitantly with the evolution of higher affinity, greater specificity molecules.

T1 sequence (Q96FI4 whole entry): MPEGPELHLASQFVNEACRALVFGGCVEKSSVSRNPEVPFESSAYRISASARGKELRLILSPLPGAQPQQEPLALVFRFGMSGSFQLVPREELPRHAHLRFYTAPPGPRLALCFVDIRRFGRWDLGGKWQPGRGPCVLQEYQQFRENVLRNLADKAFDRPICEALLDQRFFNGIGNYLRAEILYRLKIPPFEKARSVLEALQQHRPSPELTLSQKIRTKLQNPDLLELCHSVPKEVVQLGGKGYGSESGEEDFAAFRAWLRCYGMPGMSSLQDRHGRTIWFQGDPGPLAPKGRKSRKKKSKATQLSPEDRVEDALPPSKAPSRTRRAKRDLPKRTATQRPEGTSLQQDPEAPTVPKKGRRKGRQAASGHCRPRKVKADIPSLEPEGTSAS

SMILES	IC50 [1] [µM]	IC50 [2] [µM]	D37 (37% survival) [3] [µM]
Cc1cc(/C=C/C#N)cc(C)c1Nc1nc(Nc2ccc3c(c2)CCC3)c2nc[nH]c2n1 [Purine P7]	8.9	11.7	15
Cc1cc(/C=C/C#N)cc(C)c1Nc1nc(Nc2ccc3c(c2)OCO3)c2nc[nH]c2n1 [Purine P8]	10	15.2	11
Cc1nc2ccc(Nc3nc(Nc4c(C)cc(/C=C/C#N)cc4C)nc4[nH]cnc34)cc2s1 [Purine P6]	7.9	9.2	8
Cc1cc(/C=C/C#N)cc(C)c1Nc1nc(Nc2ccc3scnc3c2)c2nc[nH]c2n1 [Purine P2]	4	28	10
